{
  "source": "patent US20240336568A1",
  "about": "“SELECTIVE PHD1 INHIBITOR COMPOUNDS, COMPOSITIONS, AND METHODS OF USE” (Akebia Therapeutics, Inc., priority 2021, published 2024)",
  "data": [
    {"tested_on": "full-length human prolyl-4-hydroxylase domain (PHD) enzymes, PHD1 and PHD2", "test": "TR-FRET assay, selectivity of compounds for PHD1 over PHD2 (ratio of Kis calculated from IC50s)", "format": "biochemical", "settings": "ratio of Kis (PHD2 Ki/PHD1 Ki), Kis calculated from TR-FRET IC50s by Cheng Prussoff equation; 1 uM 2-OG", "from_the_text": "Time-resolved fluorescence resonance energy transfer (TR-FRET) assay was utilized to determine the enzymatic half maximal inhibitory concentration (IC50) value of PHD inhibitors against the full-length human prolyl-4-hydroxylase domain (PHD) enzymes, PHD1 and PHD2. The TR-FRET assay was developed based on the specific binding of hydroxylated HIF-la peptide with the complex formed by VHL, EloB and EloC (VBC), to generate a fluorescent signal. Terbium (Tb)-Donor (monoclonal antibody anti-6His-Tb-cryptate Gold) and D2-acceptor (streptavidin [SA]-D2) of TR-FRET are linked to the VBC complex and to HIF-1α peptide, respectively. The VBC complex binds specifically to the HIF-1α peptide when it is hydroxylated, allowing energy transfer from TR-FRET donor to acceptor (FIG. 1).\nTR-FRET Reagents. Monoclonal antibody anti-6His-Tb-cryptate Gold (catalog #61HI2TLA) and streptavidin (SA)-D2 (catalog #610SADLA) were purchased from CisBio International (Bedford, MA, USA).\nN-terminus biotinylated HIF-1α C35 synthetic peptide representing amino acids 547 to 581 and including the proline 564 PHD2 hydroxylation site was purchased from California Peptide Research (Salt Lake City, UT, USA).\nVBC Complex. His-tagged recombinant VHL protein, EloB, EloC complex (His-VBC) was supplied by Axxam (Milan, Italy). Recombinant human VHL (National Center for Biotechnology Information [NCBI] accession number NP_00542.1) contained a His tag at the C-terminus of amino acids 55 to 213 and is referred to as VHL-His. VHL-His was co-expressed in E. coli with full-length human EloB (NCBI accession number Q15370.1) and full-length human EloC (NCBI accession number Q15369.1) and purified by affinity chromatography on a nickel-nitrilotriacetic acid (Ni-NTA) column as the His-VBC complex. Purity (˜80%) was assessed by sodium dodecyl sulfate polyacrylamide gel electrophoresis (SDS-PAGE).\nPHD1. Recombinant human PHD1 protein (catalog #81064, Lot #24717001) was purchased from Active Motif (Carlsbad, CA, USA). PHD1 was expressed in a baculovirus expression system as the full-length protein (NCBI accession number NP_542770.2) with an N-terminal FLAG tag (molecular weight 44.9 kDa). Purity (>90%) was assessed by SDS-PAGE.\nPHD2. The full-length human PHD2 enzyme was produced with a baculovirus infected insect cell (BIIC) expression system by Beryllium (Bedford, MA, USA). The PHD2 construct contained amino acids 1 to 426 of PHD2 (UniProt Knowledgebase[UniProtKB]/Swiss-Prot accession number Q9GZT9.1), and a His tag and a Tobacco Etch Virus (TEV) protease cleavage site at the N-terminus. The construct was expressed in Sf9 insect cells, purified by Ni-NTA column and digested with TEV protease to remove the His tag.\nCompounds were preincubated with PHD enzyme in a 10 μL reaction volume in white 384-well Optiplate microplates (catalog #6007290, Perkin Elmer, Waltham, MA, USA). For this, 5 μL compound was serially diluted with dilution buffer (50 mM HEPES [4-(2-hydroxyethyl)-1-piperazineethanesulfonic acid] pH 7.5, 50 mM sodium chloride [NaCl], 0.01% Tween-20, 0.01% purified bovine serum albumin [BSA]) and mixed with 5 μL PHD enzyme mix prepared as a 4× concentrate in the dilution buffer containing PHD enzyme (60 nM PHD1, 20 nM PHD2, 140 nM PHD3), 40 μM ferrous ammonium sulfate (FAS), 4 mM sodium (Na) ascorbate. The plates were incubated for 30 minutes at room temperature without rotation.\nFive microliters of the VBC/anti-6His-Tb-cryptate Gold mix prepared as a 4× concentrate in dilution buffer containing 20 nM His-VBC, 1.32 nM monoclonal antibody anti-6His-Tb-cryptate Gold was then added. This step was followed immediately by the addition of 5 μL of the HIF-1α C35 substrate mix prepared as a 4× concentrate in the dilution buffer containing 120 nM biotin-labeled HIF-1α C35, 132 nM SA-D2, 4 μM 2-oxoglutarate (2-OG) to reach a final reaction volume of 20 μL. […]", "units": {"Selectivity of PHD1 over PHD2": "fold"}, "values": [
      {"compound": "CC(C)(CNC(=O)c1ncc(-c2ccc3cnccc3c2)cc1O)C(=O)O", "note": "[compound 42, 3-(3-hydroxy-5-(isoquinolin-6-yl)picolinamido)-2,2-dimethylpropanoic acid]", "Selectivity of PHD1 over PHD2": "~197"},
      {"compound": "CC(C)(CNC(=O)c1ncc(-c2ccc3ccncc3c2)cc1O)C(=O)O", "note": "[compound 43, 3-(3-hydroxy-5-(isoquinolin-7-yl)picolinamido)-2,2-dimethylpropanoic acid]", "Selectivity of PHD1 over PHD2": "~1875"},
      {"compound": "Cc1ccc2ccc(-c3cnc(C(=O)NCC(C)(C)C(=O)O)c(O)c3)c(F)c2n1", "note": "[compound 44, 3-(5-(8-fluoro-2-methylquinolin-7-yl)-3-hydroxypicolinamido)-2,2-dimethylpropanoic acid]", "Selectivity of PHD1 over PHD2": "~1833"},
      {"compound": "Cc1ccc2cc(-c3cnc(C(=O)NCC(C)(C)C(=O)O)c(O)c3)ccc2n1", "note": "[compound 45, 3-(3-hydroxy-5-(2-methylquinolin-6-yl)picolinamido)-2,2-dimethylpropanoic acid]", "Selectivity of PHD1 over PHD2": "~3740"},
      {"compound": "CC(C)(CNC(=O)c1ncc(-c2ccc3nccnc3c2)cc1O)C(=O)O", "note": "[compound 46, 3-(3-hydroxy-5-(quinoxalin-6-yl)picolinamido)-2,2-dimethylpropanoic acid]", "Selectivity of PHD1 over PHD2": "~124"},
      {"compound": "CC(C)(CNC(=O)c1ncc(-c2cn(CCCc3ccc(Cl)cc3)nn2)cc1O)C(=O)O", "note": "[compound 47, 3-(5-(1-(3-(4-chlorophenyl)propyl)-1H-1,2,3-triazol-4-yl)-3-hydroxypicolinamido)-2,2-dimethylpropanoic acid]", "Selectivity of PHD1 over PHD2": "~10"},
      {"compound": "CC(CNC(=O)c1ncc(-c2ccc3ccccc3c2)cc1O)C(=O)O", "note": "(stereo not drawn) [compound 48, 3-(3-Hydroxy-5-(naphthalen-2-yl)picolinamido)-2-methylpropanoic acid]", "Selectivity of PHD1 over PHD2": "~167"},
      {"compound": "CC(CNC(=O)c1ncc(-c2cccc(Cl)c2)cc1O)C(=O)O", "note": "(stereo not drawn) [compound 49, 3-(5-(3-chlorophenyl)-3-hydroxypicolinamido)-2-methylpropanoic acid]", "Selectivity of PHD1 over PHD2": "~12"},
      {"compound": "CC(CNC(=O)c1ncc(-c2cnn(-c3ccccc3)c2)cc1O)C(=O)O", "note": "(stereo not drawn) [compound 50, 3-(3-hydroxy-5-(1-phenyl-1H-pyrazol-4-yl)picolinamido)-2-methylpropanoic acid]", "Selectivity of PHD1 over PHD2": "~50"},
      {"compound": "CC(C)(CNC(=O)c1nc(C#N)c(-c2cccc(Cl)c2)cc1O)C(=O)O", "note": "[compound 51, 3-(5-(3-chlorophenyl)-6-cyano-3-hydroxypicolinamido)-2,2-dimethylpropanoic acid]", "Selectivity of PHD1 over PHD2": "~4"},
      {"compound": "CC(C)(CNC(=O)c1ncc(-c2cccc(NCCc3ccc(Cl)cc3)c2)cc1O)C(=O)O", "note": "[compound 52, 3-(5-(3-((4-Chlorophenethyl)amino)phenyl)-3-hydroxypicolinamido)-2,2-dimethylpropanoic acid]", "Selectivity of PHD1 over PHD2": "~31"},
      {"compound": "CC(C)(CNC(=O)c1ncc(-c2cnc(-c3ccccc3)s2)cc1O)C(=O)O", "note": "[compound 53, 3-(3-hydroxy-5-(2-phenylthiazol-5-yl)picolinamido)-2,2-dimethylpropanoic acid]", "Selectivity of PHD1 over PHD2": "~1215"},
      {"compound": "O=C(O)CCNC(=O)c1ncc(-c2cnn(-c3ccccc3)c2)cc1O", "note": "[compound 54, 3-(3-hydroxy-5-(1-phenyl-1H-pyrazol-4-yl)picolinamido)propanoic acid]", "Selectivity of PHD1 over PHD2": "~11"},
      {"compound": "COc1cc2c(-c3cnc(C(=O)NCC(C)(C)C(=O)O)c(O)c3)cn(C)c2cn1", "note": "[compound 55, 3-(3-hydroxy-5-(5-methoxy-1-methyl-1H-pyrrolo[2,3-c]pyridin-3-yl)picolinamido)-2,2-dimethylpropanoic acid]", "Selectivity of PHD1 over PHD2": "~96"},
      {"compound": "CC(C)(CNC(=O)c1ncc(-c2scc3c2OCCO3)cc1O)C(=O)O", "note": "[compound 56, 3-(5-(2,3-dihydrothieno[3,4-b][1,4]dioxin-5-yl)-3-hydroxypicolinamido)-2,2-dimethylpropanoic acid]", "Selectivity of PHD1 over PHD2": "~44"},
      {"compound": "CC(C)(CNC(=O)c1ncc(-c2ccc3c(=O)[nH]ncc3c2)cc1O)C(=O)O", "note": "[compound 57, 3-(3-hydroxy-5-(1-oxo-1,2-dihydrophthalazin-6-yl)picolinamido)-2,2-dimethylpropanoic acid]", "Selectivity of PHD1 over PHD2": "~64"},
      {"compound": "CCOc1ccc2cc(-c3cnc(C(=O)NCC(C)(C)C(=O)O)c(O)c3)ccc2c1", "note": "[compound 58, 3-(5-(6-ethoxynaphthalen-2-yl)-3-hydroxypicolinamido)-2,2-dimethylpropanoic acid]", "Selectivity of PHD1 over PHD2": "~911"},
      {"compound": "CC(C)(CNC(=O)c1ncc(-c2ccc3cc(NS(C)(=O)=O)ccc3c2)cc1O)C(=O)O", "note": "[compound 59, 3-(3-hydroxy-5-(6-(methylsulfonamido)naphthalen-2-yl)picolinamido)-2,2-dimethylpropanoic acid]", "Selectivity of PHD1 over PHD2": "~88"},
      {"compound": "Cc1c(-c2cnc(C(=O)NCC(C)(C)C(=O)O)c(O)c2)ccc2ccccc12", "note": "[compound 60, 3-(3-hydroxy-5-(1-methylnaphthalen-2-yl)picolinamido)-2,2-dimethylpropanoic acid]", "Selectivity of PHD1 over PHD2": "~204"},
      {"compound": "CC(C)c1ccc2sc(-c3cnc(C(=O)NCC(C)(C)C(=O)O)c(O)c3)cc2c1", "note": "[compound 61, 3-(3-hydroxy-5-(5-isopropylbenzo[b]thiophen-2-yl)picolinamido)-2,2-dimethylpropanoic acid]", "Selectivity of PHD1 over PHD2": "~341"},
      {"compound": "O=C(O)CCNC(=O)c1ncc(-c2ccc3ccccc3c2)cc1O", "note": "[compound 62, 3-(3-hydroxy-5-(naphthalen-2-yl)picolinamido)propanoic acid]", "Selectivity of PHD1 over PHD2": "~24"}
    ]}
  ]
}
